Experimental findings from US12065445B2, “CDK2 inhibitors and methods of using the same” (Cedilla Therapeutics, Inc., priority 2021, dated 2024) are described below.

Molecules are shown by their SMILES.

The test system of test [1] is Kuramochi cells labeled with mApple-H2B. As to the kind of experiment: IncuCyte Cell Proliferation Assay. In kind it is cell-based. The following applies: 72 h. Summed up: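 GI50 came from dose-response fits of cell-count fold change between 0 and 72 h, normalized to DMSO controls. Counts were fluorescent nuclei from live-cell images over a 10-point, ½ log series starting at 20 μM.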

A further test deals with Kuramochi cells. As to the kind of experiment: BrdU Cell Proliferation Assay. Conditions: read-out: BrdU - KURAMOCHI.1: IC50. In kind it is cell-based. Summed up:
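Signal is 450 nm absorbance from a peroxidase anti-BrdU ELISA after a 1-hour BrdU label, background-subtracted and normalized to DMSO-treated wells. Kuramochi cells (2,000 per well) had been exposed to compound for 4 days. Dosing used a 10-point dose response in 3-fold steps.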

For orientation: IC50 means the concentration at which inhibition is half-maximal. With `C[C@@H](OCC1CCCCC1)[C@H](NC(=O)C1CN(C(=O)c2cncs2)CC12CN(C(=O)[C@H]1CC1(C)C)C2)C(=O)N1CCOCC1` (stereo partly shown) [I-138], the IC50 (in test [1]; with Kuramochi cells) was not above 0.5 µM throughout.

Consider `CC1(C)C[C@@H]1C(=O)N1CC2(CN(C(=O)c3cnn(Cc4ccccc4)c3)C[C@H]2C(=O)N[C@H]2C[C@@H]2c2cccc(Cl)c2)C1` [I-140A], for which the figures for the IC50 (in test [1]; with Kuramochi cells) were 5 to 20 µM and more than 10 µM, respectively.

`CNC(=O)[C@@H](NC(=O)[C@H]1CN(C(=O)c2cnn(Cc3ccccc3)c2)CC12CN(C(=O)[C@H]1CC1(C)C)C2)[C@@H](C)OCC1CCC(C(F)(F)F)CC1` (stereo partly shown) [I-141B]: the IC50 was in the range of 5 to 20 µM in test [1] and 0.5 to 5 µM with Kuramochi cells.

Turning to `C[C@@H](OCC1CCCCC1)[C@H](NC(=O)C1CN(C(=O)c2cnn(Cc3ccccc3)c2)CC12CN(C(=O)[C@H]1CC1(C)C)C2)C(=O)N1CCC(F)(F)CC1` (stereo partly shown) [I-149 mixture], the IC50 (in test [1]; in the test with Kuramochi cells) was not above 0.5 µM in each case.

On to `C[C@@H](OCC1CCCCC1)[C@H](NC(=O)[C@@H]1CN(C(=O)c2cnn(Cc3ccccc3)c2)CC12CN(C(=O)[C@H]1CC1(C)C)C2)C(=O)N1CCC(F)(F)CC1` [I-149A], for which the IC50 (in test [1]; with Kuramochi cells) was not above 0.5 µM throughout.

As for `C[C@@H](OCC1CCCCC1)[C@H](NC(=O)[C@@H]1CN(C(=O)c2cn[nH]c2)CC12CN(C(=O)[C@H]1CC1(C)C)C2)C(=O)N1CCCCC1` [I-151A], the IC50 (in test [1]; in the test on Kuramochi cells) was 0.5 to 5 µM in each case.

Turning to `C[C@@H](OCC1CCCCC1)[C@H](NC(=O)C1CN(C(=O)c2cnn(Cc3ccccc3)c2)CC12CN(C(=O)[C@H]1CC1(C)C)C2)C(=O)N1CCOCC1` (stereo partly shown) [I-152 mixture], the IC50 (in test [1]; with Kuramochi cells) was not above 0.5 µM each time.

On to `C[C@@H](OCC1CCCCC1)[C@H](NC(=O)[C@@H]1CN(C(=O)c2cnn(Cc3ccccc3)c2)CC12CN(C(=O)[C@H]1CC1(C)C)C2)C(=O)N1CCOCC1` [I-152A], for which the half-inhibitory concentration (IC50) (in test [1]; with Kuramochi cells) was not above 0.5 µM each time.

In the case of `C[C@@H](OCC1CCCCC1)[C@H](NC(=O)[C@H]1CN(C(=O)c2cnn(Cc3ccccc3)c2)CC12CN(C(=O)[C@H]1CC1(C)C)C2)C(=O)N1CCOCC1` [I-152B], the IC50 in test [1] is 5 to 20 µM; in the test on Kuramochi cells, more than 10 µM.

For `C[C@@H](OCC1CCCCC1)[C@H](NC(=O)C1CN(C(=O)c2cnn(Cc3ccccc3)c2)CC12CN(C(=O)[C@H]1CC1(C)C)C2)C(=O)N1CC(C)(C)C1` (stereo partly shown) [I-153 mixture], the IC50 (in test [1]; with Kuramochi cells) was not above 0.5 µM in each case.

As for `C[C@@H](OCC1CCCCC1)[C@H](NC(=O)[C@@H]1CN(C(=O)c2cnn(Cc3ccccc3)c2)CC12CN(C(=O)[C@H]1CC1(C)C)C2)C(=O)N1CC(C)(C)C1` [I-153A], the half-maximal inhibitory concentration (IC50) (in test [1]; in the test on Kuramochi cells) was not above 0.5 µM each time.

For `C[C@@H](OCC1CCCCC1)[C@H](NC(=O)[C@@H]1CN(C(=O)c2cn[nH]c2)CC12CN(C(=O)[C@H]1CC1(C)C)C2)C(=O)N1CCC(F)(F)CC1` [I-154A], the IC50 (in test [1]; in the test on Kuramochi cells) was 0.5 to 5 µM in each case.

As for `CNC(=O)[C@@H](NC(=O)[C@H]1CN(C(=O)c2cnc(C)s2)CC12CN(C(=O)[C@H]1CC1(C)C)C2)[C@@H](C)OCC1CCCCC1` [I-156B], the results for the IC50 (in test [1]; with Kuramochi cells) were more than 20 µM and more than 10 µM, respectively.

As to `CNC(=O)[C@@H](NC(=O)[C@@H]1CN(C(=O)c2scnc2Cl)CC12CN(C(=O)[C@H]1CC1(C)C)C2)[C@@H](C)OCC1CCCCC1` [I-157A], the half-inhibitory concentration (IC50) (in test [1]; in the test with Kuramochi cells) was 0.5 to 5 µM throughout.

In the case of `CNC(=O)[C@@H](NC(=O)[C@@H]1CN(C(=O)c2sc(COC)nc2C)CC12CN(C(=O)[C@H]1CC1(C)C)C2)[C@@H](C)OCC1CCCCC1` [I-162A], the half-inhibitory concentration (IC50) in test [1] fell in the range of 5 to 20 µM; with Kuramochi cells it was 0.5 to 5 µM.

Consider `CNC(=O)[C@@H](NC(=O)[C@@H]1CN(C(=O)c2scnc2C(F)(F)F)CC12CN(C(=O)[C@H]1CC1(C)C)C2)[C@@H](C)OCC1CCCCC1` [I-163A], for which the results for the concentration for half-maximal inhibition (IC50) (in test [1]; with Kuramochi cells) were more than 20 µM and more than 10 µM, respectively.

Consider `C[C@@H](OCC1CCC(F)(F)CC1)[C@H](NC(=O)[C@@H]1CN(C(=O)c2cnn(Cc3ccc(F)cc3)c2)CC12CN(C(=O)[C@H]1CC1(C)C)C2)C(=O)N1CCC(F)(F)CC1` [I-164A], for which the IC50 (in test [1]; in the test with Kuramochi cells) was not above 0.5 µM each time.

Consider `C[C@@H](OCC1CCC(F)(F)CC1)[C@H](NC(=O)[C@H]1CN(C(=O)c2cnn(Cc3ccc(F)cc3)c2)CC12CN(C(=O)[C@H]1CC1(C)C)C2)C(=O)N1CCC(F)(F)CC1` [I-164B], for which the IC50 (in test [1]; with Kuramochi cells) was 0.5 to 5 µM each time.

As for `CNC(=O)[C@@H](NC(=O)[C@@H]1CN(C(=O)c2cnn(Cc3ccccc3)c2)CC12CN(C(=O)[C@H]1CC1(C)C)C2)[C@@H](C)OCC1CCCCCC1` [I-166A], the IC50 (in test [1]; in the test on Kuramochi cells) was not above 0.5 µM in each case.

Take `CNC(=O)[C@@H](NC(=O)[C@@H]1CN(C(=O)c2cnn(Cc3ccccc3)c2)CC12CN(C(=O)C(C)(C)C)C2)[C@@H](C)OCC1CCCCC1` [I-174A]: the IC50 (in test [1]; in the test with Kuramochi cells) was 0.5 to 5 µM each time.

As for `CNC(=O)[C@@H](NC(=O)[C@@H]1CN(C(=O)c2cnc(COC(C)(C)C)s2)CC12CN(C(=O)[C@H]1CC1(C)C)C2)[C@@H](C)OCC1CCCCC1` [I-175A], the IC50 (in test [1]; in the test with Kuramochi cells) was not above 0.5 µM each time.

Take `CNC(=O)[C@@H](NC(=O)[C@H]1CN(C(=O)c2cnc(COC(C)(C)C)s2)CC12CN(C(=O)[C@H]1CC1(C)C)C2)[C@@H](C)OCC1CCCCC1` [I-175B]: the IC50 in test [1] was 5 to 20 µM; in the test on Kuramochi cells, more than 10 µM.

In the case of `C[C@@H](OCc1ccccc1)[C@H](NC(=O)[C@@H]1CN(C(=O)c2cnn(Cc3ccccc3)c2)CC12CN(C(=O)[C@H]1CC1(C)C)C2)C(N)=O` [I-176A], the results for the IC50 (in test [1]; in the test on Kuramochi cells) were more than 20 µM and more than 10 µM, respectively.

Consider `CNC(=O)[C@@H](NC(=O)[C@@H]1CN(C(=O)c2cnc(CC3CC3)s2)CC12CN(C(=O)[C@H]1CC1(C)C)C2)[C@@H](C)OCC1CCCCC1` [I-177A], for which the results for the IC50 (in test [1]; in the test on Kuramochi cells) were 5 to 20 µM and 0.5 to 5 µM, respectively.

Regarding `CNC(=O)[C@@H](NC(=O)[C@@H]1CN(C(=O)c2cnc(C3CC3)s2)CC12CN(C(=O)[C@H]1CC1(C)C)C2)[C@@H](C)OCC1CCCCC1` [I-178A], the IC50 in test [1] is 5 to 20 µM; with Kuramochi cells, more than 10 µM.

In the case of `CNC(=O)[C@@H](NC(=O)[C@@H]1CN(C(=O)c2cnc(Cl)s2)CC12CN(C(=O)[C@H]1CC1(C)C)C2)[C@@H](C)OCC1CCCCC1` [I-189A], the IC50 in test [1] is 5 to 20 µM; in the test on Kuramochi cells, more than 10 µM.

Turning to `CNC(=O)[C@@H](NC(=O)[C@H]1CN(C(=O)c2cnc(Cl)s2)CC12CN(C(=O)[C@H]1CC1(C)C)C2)[C@@H](C)OCC1CCCCC1` [I-189B], the figures for the concentration for half-maximal inhibition (IC50) (in test [1]; in the test with Kuramochi cells) were more than 20 µM and more than 10 µM, respectively.

Turning to `CC1(C)C[C@@H]1C(=O)N1CC2(CN(C(=O)c3cnn(Cc4ccccc4)c3)C[C@H]2C(=O)NCc2nnc[nH]2)C1` [I-191A], the IC50 in test [1] is more than 20 µM; in the test on Kuramochi cells it was more than 10 µM.

On to `CC1(C)C[C@@H]1C(=O)N1CC2(CN(C(=O)c3cnn(Cc4ccccc4)c3)C[C@@H]2C(=O)NCc2nnc[nH]2)C1` [I-191B], for which the IC50 was more than 20 µM in test [1] and more than 10 µM with Kuramochi cells.

As for `C[C@@H](OCC1CCCCC1)[C@H](NC(=O)C1CN(C(=O)c2cncs2)CC12CN(C(=O)[C@H]1CC1(C)C)C2)C(=O)N1CCC[C@H](CO)C1` (stereo partly shown) [I-193], the IC50 (in test [1]; with Kuramochi cells) was not above 0.5 µM throughout.

As for `C[C@@H](OCC1CCCCC1)[C@H](NC(=O)C1CN(C(=O)c2cnn(Cc3ccccc3)c2)CC12CN(C(=O)[C@H]1CC1(C)C)C2)C(=O)N1CCCCC1` (stereo partly shown) [I-194 mixture], the IC50 (in test [1]; in the test on Kuramochi cells) was not above 0.5 µM in each case.

As for `C[C@@H](OCC1CCCCC1)[C@H](NC(=O)[C@@H]1CN(C(=O)c2cnn(Cc3ccccc3)c2)CC12CN(C(=O)[C@H]1CC1(C)C)C2)C(=O)N1CCCCC1` [I-194A, (S)-6-(1-benzyl-1H-pyrazole-4-carbonyl)-N-((2S,3R)-3-(cyclohexylmethoxy)-1-oxo-1-(piperidin-1-yl)butan-2-yl)-2-((S)-2,2-dimethylcyclopropane-1-carbonyl)-2,6-diazaspiro[3.4]octane-8-carboxamide], the IC50 (in test [1]; in the test with Kuramochi cells) was not above 0.5 µM in each case.

`C[C@@H](OCC1CCCCC1)[C@H](NC(=O)[C@H]1CN(C(=O)c2cnn(Cc3ccccc3)c2)CC12CN(C(=O)[C@H]1CC1(C)C)C2)C(=O)N1CCCCC1` [I-194B]: the IC50 in test [1] was 5 to 20 µM; in the test on Kuramochi cells, 0.5 to 5 µM.

On to `COC[C@@H]1CCCN(C(=O)[C@@H](NC(=O)C2CN(C(=O)c3cncs3)CC23CN(C(=O)[C@H]2CC2(C)C)C3)[C@@H](C)OCC2CCCCC2)C1` (stereo partly shown) [I-195], for which the IC50 (in test [1]; with Kuramochi cells) was not above 0.5 µM in each case.

For `COC[C@H]1CCCN(C(=O)[C@@H](NC(=O)C2CN(C(=O)c3cncs3)CC23CN(C(=O)[C@H]2CC2(C)C)C3)[C@@H](C)OCC2CCCCC2)C1` (stereo partly shown) [I-196 mixture], the IC50 was 0.5 to 5 µM in test [1] and not above 0.5 µM in the test on Kuramochi cells.

Regarding `COC[C@H]1CCCN(C(=O)[C@@H](NC(=O)[C@@H]2CN(C(=O)c3cncs3)CC23CN(C(=O)[C@H]2CC2(C)C)C3)[C@@H](C)OCC2CCCCC2)C1` [I-196A, (S)—N-((2S,3R)-3-(cyclohexylmethoxy)-1-((S)-3-(methoxymethyl)piperidin-1-yl)-1-oxobutan-2-yl)-2-((S)-2,2-dimethylcyclopropanecarbonyl)-6-(thiazole-5-carbonyl)-2,6-diazaspiro[3.4]octane-8-carboxamide], the IC50 (in test [1]; in the test with Kuramochi cells) was not above 0.5 µM throughout.

In the case of `COC[C@H]1CCCN(C(=O)[C@@H](NC(=O)[C@H]2CN(C(=O)c3cncs3)CC23CN(C(=O)[C@H]2CC2(C)C)C3)[C@@H](C)OCC2CCCCC2)C1` [I-196B], the half-maximal inhibitory concentration (IC50) was 0.5 to 5 µM in test [1] and not above 0.5 µM with Kuramochi cells.

In the case of `C[C@@H](OCC1CCCCC1)[C@H](NC(=O)C1CN(C(=O)c2cncs2)CC12CN(C(=O)[C@H]1CC1(C)C)C2)C(=O)N1CCC[C@@H](CO)C1` (stereo partly shown) [I-197], the IC50 in test [1] is not above 0.5 µM; in the test on Kuramochi cells, 0.5 to 5 µM.
